Literature values in patent US20120225135A1 (priority 2010, published 2012).

Test system: biofilm
Settings: cited from earlier work

Row | Molecule | effect on biofilm | effect on biofilm detachment | further results
1 | O=CCCCC=O [Glutaraldehyde] | no effect on biofilm |  | 
2 | O=[O+][O-] [Ozone] | kill cells in the biofilm without any detachment of the biofilm |  | 
3 | OO [hydrogen peroxide] |  | very poor to no effect | 
4 | CC(=O)OO [peracetic acids] |  | very poor to no effect | 
5 | chloramines |  |  | detachment of biofilms: very effective
